Literature values in patent publication US20240166971A1, “CONTACT LENS TREATING SOLUTION” (Bausch + Lomb Ireland Limited, priority 2022, published 2024).

Tested on: Gram-positive bacteria
Conditions: known property

For `CCCCC(CC)COCC(O)CO` (stereo not shown) [EHOPD, 3-[(2-ethylhexyl)oxy]-1,2-propanediol], the antimicrobial activity is listed as “exhibit antimicrobial activity”.
